US20050131463A1, “Perfusion chamber for recording evoked and spontaneous electrical activity from submerged acute brain slices” (priority 2003, published 2005)

Tested on: str. radiatum CA1 region of rat hippocampal slices (LTP)
Assay: LTP test (40 Hz theta burst tetanization) in submerged hippocampal slices, field EPSP recording in multi-chamber device
Type: cell-based
Conditions: 40 Hz×4×10 theta burst, p<0.01, 4 rats, 12 slices
Protocol: A twelve-chamber assembly of chambers according to the embodiment of the invention described in Example 1 is prepared for measurement of twelve slices simultaneously. Each chamber is prepared such that the top ends of the electrodes are placed 50 μm below the bottom net. Bipolar stimulation is utilized and the distance between electrodes is set to 100 μm. Such an assembly with fixed electrodes may be utilized for numerous experiments without readjustment of the electrodes. Individual chambers in the assembly may be replaced as necessary with new chambers. Electrophysiology experiments are performed on a 6-month old male rat. 400 μm hippocampal slices from the rat are prepared using a VIBROTOMETM (vibroslicer WPI; World Precision Instruments) to assure precise thickness. Slices were incubated for 2 hours at room temperature in a perfusion solution containing, in mM, 119 NaCl, 2.5 KCl, 2.5 CaCl2, 1.3 MgSO4, 1.25 NaH2PO4, 26.0 NaHCO3, 10 glucose and equilibrated with 95% O2 and 5% CO2 (pH 7.3-7.4) at room temperature. […] Simultaneous recording from the twelve slices is measured using electrophysiological software, […] […] 30 seconds after the single tetanus, baseline is continued to be collected as before and LTP was measured 60 minutes after tetanization. […] LOGEC 50 values are determined using Prizm4 software (Graphpad).

## COc1ccc(C2CNC(=O)C2)cc1OC1CCCC1 (centres unmarked) [rolipram]
Rolipram 1 μM in perfusion fluid
  % of facilitation of the LTP 60 minutes after tetanic stimulation: significant
Rolipram 10 μM in perfusion fluid
  % of facilitation of the LTP 60 minutes after tetanic stimulation: significant
